Results reported in BigSolDB 2.1.

COC(=O)[C@H](N)c1ccc(O)cc1
Conditions	solubility (mole fraction)
in ethanol, 283.15 K	0.00129
in ethanol, 288.13 K	0.00179
in ethanol, 293.15 K	0.0024
in ethanol, 298.17 K	0.00318
in ethanol, 303.15 K	0.00411
in ethanol, 308.2 K	0.00522
in ethanol, 313.15 K	0.00652
in ethanol, 318.1 K	0.008
in ethanol, 323.15 K	0.00968
in ethyl acetate, 283.15 K	0.000154
in ethyl acetate, 288.17 K	0.00029
in ethyl acetate, 293.15 K	0.000479
in ethyl acetate, 298.15 K	0.000761
in ethyl acetate, 303.16 K	0.00113
in ethyl acetate, 308.15 K	0.00158
in ethyl acetate, 313.15 K	0.00209
in ethyl acetate, 318.18 K	0.00261
in ethyl acetate, 323.15 K	0.00311
in isopropanol, 283.15 K	0.000167
in isopropanol, 288.2 K	0.000327
in isopropanol, 293.14 K	0.000576
in isopropanol, 298.15 K	0.000976
in isopropanol, 303.15 K	0.00163
in isopropanol, 308.2 K	0.00258
in isopropanol, 313.2 K	0.00368
in isopropanol, 318.15 K	0.00517
in isopropanol, 323.15 K	0.00677
in isopropyl acetate, 283.17 K	4.68e-05
in isopropyl acetate, 288.15 K	8.53e-05
in isopropyl acetate, 293.14 K	0.000146
in isopropyl acetate, 298.15 K	0.000237
in isopropyl acetate, 303.13 K	0.00037
in isopropyl acetate, 308.15 K	0.000555
in isopropyl acetate, 313.15 K	0.0008
in isopropyl acetate, 318.15 K	0.00111
in isopropyl acetate, 323.15 K	0.00149
in methanol, 283.1 K	0.00221
in methanol, 288.15 K	0.00273
in methanol, 293.24 K	0.00338
in methanol, 298.1 K	0.00415
in methanol, 303.15 K	0.00505
in methanol, 308.2 K	0.00611
in methanol, 313.2 K	0.00732
in methanol, 318.15 K	0.00872
in methanol, 323.2 K	0.0103
in methyl acetate, 283.12 K	0.000417
in methyl acetate, 288.2 K	0.000578
in methyl acetate, 293.17 K	0.000914
in methyl acetate, 298.14 K	0.00136
in methyl acetate, 303.15 K	0.0019
in methyl acetate, 308.15 K	0.00253
in methyl acetate, 313.15 K	0.0032
in methyl acetate, 318.15 K	0.00385
in methyl acetate, 323.15 K	0.00444
in n-butanol, 283.15 K	0.000489
in n-butanol, 288.2 K	0.000737
in n-butanol, 293.17 K	0.00114
in n-butanol, 298.18 K	0.00164
in n-butanol, 303.15 K	0.00224
in n-butanol, 308.2 K	0.00308
in n-butanol, 313.15 K	0.00418
in n-butanol, 318.15 K	0.00561
in n-butanol, 323.15 K	0.00733
in n-butyl acetate, 283.1 K	5.67e-05
in n-butyl acetate, 288.15 K	8.11e-05
in n-butyl acetate, 293.15 K	0.000116
in n-butyl acetate, 298.17 K	0.000165
in n-butyl acetate, 303.15 K	0.000233
in n-butyl acetate, 308.15 K	0.000326
in n-butyl acetate, 313.14 K	0.000456
in n-butyl acetate, 318.15 K	0.000626
in n-butyl acetate, 323.12 K	0.000873
in n-pentanol, 283.14 K	6.94e-05
in n-pentanol, 288.2 K	0.000156
in n-pentanol, 293.15 K	0.000322
in n-pentanol, 298.15 K	0.000606
in n-pentanol, 303.15 K	0.00107
in n-pentanol, 308.14 K	0.00177
in n-pentanol, 313.15 K	0.00273
in n-pentanol, 318.15 K	0.00399
in n-pentanol, 323.15 K	0.00549
in n-propanol, 283.13 K	0.000939
in n-propanol, 288.2 K	0.00127
in n-propanol, 293.15 K	0.00173
in n-propanol, 298.13 K	0.00226
in n-propanol, 303.15 K	0.00295
in n-propanol, 308.15 K	0.00382
in n-propanol, 313.15 K	0.0049
in n-propanol, 318.2 K	0.00624
in n-propanol, 323.15 K	0.00787
in n-propyl acetate, 283.15 K	6.95e-05
in n-propyl acetate, 288.14 K	0.000135
in n-propyl acetate, 293.17 K	0.000242
in n-propyl acetate, 298.2 K	0.000415
in n-propyl acetate, 303.15 K	0.000663
in n-propyl acetate, 308.15 K	0.00102
in n-propyl acetate, 313.15 K	0.0015
in n-propyl acetate, 318.15 K	0.00203
in n-propyl acetate, 323.15 K	0.00275
in water, 283.13 K	1.9e-05
in water, 288.16 K	2.8e-05
in water, 293.15 K	4.81e-05
in water, 298.15 K	7.86e-05
in water, 303.18 K	0.000123
in water, 308.15 K	0.000177
in water, 313.2 K	0.000232
in water, 318.15 K	0.0003
in water, 323.15 K	0.00037
